Source: BindingDB's records for doi:10.1016/j.bmcl.2004.02.007 (Research Triangle Institute, 2004)

Assays:
[1] = molecular target: Neuronal acetylcholine receptor subunit alpha-4/beta-2 (Rattus norvegicus, UniProt P09483+P12390); test: Binding affinity towards rat Nicotinic acetylcholine receptor alpha4-beta2 expressed in Xenopus oocytes using [3H]epibatidine as radioligand
[2] = molecular target: Neuronal acetylcholine receptor subunit alpha-3/beta-2 (Rattus norvegicus, UniProt P12390+P04757); test: Binding affinity towards rat Nicotinic acetylcholine receptor alpha3-beta2 expressed in Xenopus oocytes using [3H]epibatidine as radioligand
Neuronal acetylcholine receptor subunit alpha-3/beta-2, sequence (P12390 whole entry): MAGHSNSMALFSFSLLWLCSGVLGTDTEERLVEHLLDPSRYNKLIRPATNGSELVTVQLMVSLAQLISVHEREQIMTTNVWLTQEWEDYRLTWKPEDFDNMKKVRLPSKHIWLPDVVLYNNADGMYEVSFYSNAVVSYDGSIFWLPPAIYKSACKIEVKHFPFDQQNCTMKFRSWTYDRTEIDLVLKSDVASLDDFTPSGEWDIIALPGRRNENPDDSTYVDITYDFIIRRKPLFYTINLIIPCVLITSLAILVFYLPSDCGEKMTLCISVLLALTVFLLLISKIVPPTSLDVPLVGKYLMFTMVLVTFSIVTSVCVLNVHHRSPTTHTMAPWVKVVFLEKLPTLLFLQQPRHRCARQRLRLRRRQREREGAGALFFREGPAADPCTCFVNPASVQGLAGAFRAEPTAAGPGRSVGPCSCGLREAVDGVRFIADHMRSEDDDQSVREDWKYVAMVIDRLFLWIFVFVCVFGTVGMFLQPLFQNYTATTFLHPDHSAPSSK
Neuronal acetylcholine receptor subunit alpha-3/beta-2, sequence (P04757 whole entry): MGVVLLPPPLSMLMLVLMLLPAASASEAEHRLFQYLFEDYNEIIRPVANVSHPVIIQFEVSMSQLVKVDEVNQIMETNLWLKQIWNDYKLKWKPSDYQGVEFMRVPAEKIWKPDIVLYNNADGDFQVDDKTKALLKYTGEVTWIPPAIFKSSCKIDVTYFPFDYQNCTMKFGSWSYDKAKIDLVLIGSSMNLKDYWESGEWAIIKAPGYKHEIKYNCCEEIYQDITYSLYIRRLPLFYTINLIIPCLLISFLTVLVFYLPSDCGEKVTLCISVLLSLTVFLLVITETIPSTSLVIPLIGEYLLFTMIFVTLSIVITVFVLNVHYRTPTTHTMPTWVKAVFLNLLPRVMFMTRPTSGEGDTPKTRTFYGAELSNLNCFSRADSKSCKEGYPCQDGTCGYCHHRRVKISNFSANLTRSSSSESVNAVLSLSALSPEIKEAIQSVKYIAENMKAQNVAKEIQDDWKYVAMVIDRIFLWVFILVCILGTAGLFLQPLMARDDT

Neuronal acetylcholine receptor subunit alpha-4/beta-2, sequence (P09483 whole entry): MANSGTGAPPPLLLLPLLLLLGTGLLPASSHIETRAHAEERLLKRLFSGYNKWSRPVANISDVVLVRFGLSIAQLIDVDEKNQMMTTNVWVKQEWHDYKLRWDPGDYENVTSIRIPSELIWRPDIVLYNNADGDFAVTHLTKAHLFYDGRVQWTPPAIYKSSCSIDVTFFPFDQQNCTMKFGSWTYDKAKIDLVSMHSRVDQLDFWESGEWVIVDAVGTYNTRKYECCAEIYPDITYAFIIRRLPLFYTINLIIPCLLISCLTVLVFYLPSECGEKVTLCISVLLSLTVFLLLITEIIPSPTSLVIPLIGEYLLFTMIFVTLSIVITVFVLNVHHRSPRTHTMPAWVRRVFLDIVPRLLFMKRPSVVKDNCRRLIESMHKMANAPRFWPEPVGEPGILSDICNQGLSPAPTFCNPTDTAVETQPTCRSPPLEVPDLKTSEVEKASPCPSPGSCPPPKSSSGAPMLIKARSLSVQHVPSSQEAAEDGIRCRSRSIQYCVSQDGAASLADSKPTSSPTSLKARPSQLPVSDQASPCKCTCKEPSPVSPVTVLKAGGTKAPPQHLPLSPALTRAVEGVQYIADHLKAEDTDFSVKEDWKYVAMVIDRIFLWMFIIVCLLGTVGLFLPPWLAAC
Neuronal acetylcholine receptor subunit alpha-4/beta-2, sequence (P12390 whole entry): as the sequence (P12390 whole entry) above

Question: `c1cncc(C2CC3CCC2N3)c1` (configuration not stated) [2-(pyridin-3-yl)-7-aza-bicyclo[2.2.1]heptane] was tested. Which Ki [1] did it give?
Answer: Its Ki is 9 pM.

Question: How did the Ki [2] turn out when `Fc1ccc(C2CC3CCC2N3)cn1` [(R)-2-(6-Fluoro-pyridin-3-yl)-7-aza-bicyclo[2.2.1]heptane] was run?
Answer: Its Ki is 4 pM.
